Reference: ChEMBL document CHEMBL1201862, “PubChem BioAssay data set” (2004)
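96-well plates; 48 h exposure; 5 concentrations. Endpoints by linear interpolation between flanking doses. Not reached: highest tested concentration assigned. GI50: concentration for 50% inhibition of growth.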 Calls of active or inactive are those of the source. Cut-off read from the data, not from the text of the source: active = GI50 up to about 1.1 µM and inactive = higher.

Legend:
Assay in all cases: inhibition of tumour cell growth, NCI panel, 48 h
[1] = test system: 786-0
[2] = test system: CAKI-1
[3] = test system: COLO 205
[4] = test system: EKVX
[5] = test system: HCT-116
[6] = test system: HCT-15
[7] = test system: HOP-92
[8] = test system: LOX IMVI
[9] = test system: MCF7
[10] = test system: MDA-MB-435
[11] = test system: MOLT-4
[12] = test system: NCI-H522
[13] = test system: OVCAR-4
[14] = test system: OVCAR-5
[15] = test system: OVCAR-8
[16] = test system: SF-295
[17] = test system: SF-539
[18] = test system: SK-MEL-5
[19] = test system: SNB-75
[20] = test system: T47D

## COc1ccc2c(NCCCCCCNc3c4ccccc4nc4cc(OC)ccc34)c3ccccc3nc2c1
[1]
  GI50: 0.0753 µM (active)
[2]
  GI50: 0.367 µM (active)
[3]
  GI50: 0.0753 µM (active)
[4]
  GI50: 0.579 µM (active)
[5]
  GI50: 0.0451 µM (active)
[6]
  GI50: 1.29 µM
[7]
  GI50: 0.1 µM (active)
[8]
  GI50: 0.0653 µM (active)
[9]
  GI50: 0.0475 µM (active)
[10]
  GI50: 0.254 µM (active)
[11]
  GI50: 0.0146 µM (active)
[12]
  GI50: 0.0624 µM (active)
[13]
  GI50: 0.103 µM (active)
[14]
  GI50: 0.186 µM (active)
[15]
  GI50: 0.0853 µM (active)
[16]
  GI50: 0.286 µM (active)
[17]
  GI50: 0.0929 µM (active)
[18]
  GI50: 1.01 µM (active)
[19]
  GI50: 0.175 µM (active)
[20]
  GI50: 0.421 µM (active)

## C1COC(NC(C2CC2)C2CC2)=N1 [RILMENIDINE]
[1]
  GI50: > 100 µM (inactive)
[2]
  GI50: > 100 µM (inactive)
[3]
  GI50: > 100 µM (inactive)
[4]
  GI50: > 100 µM (inactive)
[5]
  GI50: > 100 µM (inactive)
[6]
  GI50: > 100 µM
[7]
  GI50: > 100 µM (inactive)
[8]
  GI50: > 100 µM (inactive)
[9]
  GI50: > 100 µM (inactive)
[10]
  GI50: > 100 µM (inactive)
[11]
  GI50: > 100 µM (inactive)
[12]
  GI50: > 100 µM (inactive)
[13]
  GI50: > 100 µM (inactive)
[14]
  GI50: > 100 µM (inactive)
[15]
  GI50: > 100 µM (inactive)
[16]
  GI50: > 100 µM (inactive)
[17]
  GI50: > 100 µM (inactive)
[18]
  GI50: > 100 µM (inactive)
[19]
  GI50: 31.1 µM (inactive)
[20]
  GI50: > 100 µM (inactive)

## CCOC(=O)/C=C(/C(=O)OCC)n1cc(C)c(=O)n(Cc2cn(CCCCOC(C)=O)nn2)c1=O
[1]
  GI50: 6.49 µM (inactive)
[2]
  GI50: 2.84 µM (inactive)
[3]
  GI50: 3.55 µM (inactive)
[4]
  GI50: 10.7 µM (inactive)
[5]
  GI50: 22.7 µM (inactive)
[6]
  GI50: 4.76 µM
[7]
  GI50: 1.21 µM (inactive)
[8]
  GI50: 17.7 µM (inactive)
[9]
  GI50: 6.3 µM (inactive)
[10]
  GI50: 10.7 µM (inactive)
[11]
  GI50: 5.05 µM (inactive)
[12]
  GI50: 1.88 µM (inactive)
[13]
  GI50: 19.7 µM (inactive)
[14]
  GI50: 18.1 µM (inactive)
[15]
  GI50: 12.9 µM (inactive)
[16]
  GI50: 33.1 µM (inactive)
[17]
  GI50: 4.54 µM (inactive)
[18]
  GI50: 25.6 µM (inactive)
[19]
  GI50: 16.3 µM (inactive)
[20]
  GI50: 9.46 µM (inactive)

## CC(=O)OCCOCCN1CCN(C2=C(Cl)C(=O)c3c(O)ccc(O)c3C2=O)CC1
[1]
  GI50: 0.326 µM (active)
[2]
  GI50: 0.339 µM (active)
[3]
  GI50: 0.231 µM (active)
[4]
  GI50: 1.67 µM (inactive)
[5]
  GI50: 0.305 µM (active)
[6]
  GI50: 0.365 µM
[7]
  GI50: 0.294 µM (active)
[8]
  GI50: 0.423 µM (active)
[9]
  GI50: 0.302 µM (active)
[10]
  GI50: 0.71 µM (active)
[11]
  GI50: 0.165 µM (active)
[12]
  GI50: 0.265 µM (active)
[13]
  GI50: 0.627 µM (active)
[14]
  GI50: 1.59 µM (inactive)
[15]
  GI50: 0.685 µM (active)
[16]
  GI50: 1.93 µM (inactive)
[17]
  GI50: 1.71 µM (inactive)
[18]
  GI50: 1.54 µM (inactive)
[19]
  GI50: 2.06 µM (inactive)
[20]
  GI50: 0.652 µM (active)

## COc1ccc(Nc2[nH]c(C(C)=O)c(N)c2C(=S)Nc2ccccc2)cc1
[1]
  GI50: 42.5 µM (inactive)
[2]
  GI50: 87.3 µM (inactive)
[3]
  GI50: 21.9 µM (inactive)
[4]
  GI50: 99.8 µM (inactive)
[5]
  GI50: 38.6 µM (inactive)
[6]
  GI50: 35.6 µM
[7]
  GI50: > 100 µM (inactive)
[8]
  GI50: 32.1 µM (inactive)
[9]
  GI50: 23.6 µM (inactive)
[10]
  GI50: 49.4 µM (inactive)
[11]
  GI50: > 100 µM (inactive)
[12]
  GI50: 36.6 µM (inactive)
[13]
  GI50: 36.5 µM (inactive)
[14]
  GI50: > 100 µM (inactive)
[15]
  GI50: 60.8 µM (inactive)
[16]
  GI50: 61.5 µM (inactive)
[17]
  GI50: 73.1 µM (inactive)
[18]
  GI50: 37.2 µM (inactive)
[19]
  GI50: > 100 µM (inactive)
[20]
  GI50: 56.8 µM (inactive)

## NC(=O)C(Nc1c(Cl)cccc1Cl)c1cc2cc(Br)ccc2nc1Cl (stereo not given)
[1]
  GI50: > 100 µM (inactive)
[2]
  GI50: 76.6 µM (inactive)
[3]
  GI50: 24.4 µM (inactive)
[4]
  GI50: 25.8 µM (inactive)
[5]
  GI50: 41.9 µM (inactive)
[6]
  GI50: 24.4 µM
[7]
  GI50: 37.7 µM (inactive)
[8]
  GI50: 59.6 µM (inactive)
[9]
  GI50: 30.1 µM (inactive)
[10]
  GI50: 19.5 µM (inactive)
[11]
  GI50: 20.7 µM (inactive)
[12]
  GI50: 25.9 µM (inactive)
[13]
  GI50: 46.3 µM (inactive)
[14]
  GI50: > 100 µM (inactive)
[15]
  GI50: 80.7 µM (inactive)
[16]
  GI50: 58.9 µM (inactive)
[17]
  GI50: 41.7 µM (inactive)
[18]
  GI50: 37.5 µM (inactive)
[19]
  GI50: > 100 µM (inactive)
[20]
  GI50: 44.4 µM (inactive)

## CCCCc1ccc(Nc2nc(Cl)c3[nH]cnc3n2)cc1
[1]
  GI50: 15.7 µM (inactive)
[2]
  GI50: 27.2 µM (inactive)
[3]
  GI50: 24.2 µM (inactive)
[4]
  GI50: 33.8 µM (inactive)
[5]
  GI50: 16.3 µM (inactive)
[6]
  GI50: 18 µM
[7]
  GI50: 11.6 µM (inactive)
[8]
  GI50: 13.7 µM (inactive)
[9]
  GI50: 20.4 µM (inactive)
[10]
  GI50: 16.8 µM (inactive)
[11]
  GI50: 20.4 µM (inactive)
[12]
  GI50: 24.2 µM (inactive)
[13]
  GI50: 34.4 µM (inactive)
[14]
  GI50: 40.6 µM (inactive)
[15]
  GI50: 18.4 µM (inactive)
[16]
  GI50: 17.7 µM (inactive)
[17]
  GI50: 18.7 µM (inactive)
[18]
  GI50: 16.7 µM (inactive)
[19]
  GI50: 33 µM (inactive)
[20]
  GI50: 11.2 µM (inactive)
